According to patent EP3895695A1, “SUPERCRITICAL CARBON DIOXIDE-BASED METHODOLOGY TO FORMULATE BIOACTIVE PREPARATIONS” (Universidad Autónoma de Madrid, priority 2020, dated 2021):

Legend:
[1] = HPLC quantification of quercetin, rosmarinic acid and carnosic acid in BIOSAS lipid products; assay type: physicochemical; details: for amount dispersed in oil: rosemary BIOSAS dispersion
Text: Carnosic acid and rosmarinic acid were identified and quantified in the case of BIOSAS rosemary samples following the procedures described by […]. Garcia-Risco, T. Fornari, G. Reglero, Isolation of carsonic acid from rosemary extracts using semi-preparative supercritical fluid chromatography, J. Chromatogr. A. 1286 (2013) 208-215. doi:10.1016/j.chroma.2013.02.044 using a HPLC Prominence-i LC-2030C 3D Plus (Shimadzu) equipped with a RP-C18 (250 × 4.6 mm; 3 μm) chromatography column. The mobile phase consisted of 0.1 % of phosphoric acid in water (solvent A) and acetonitrile (solvent B) applying the following gradient: 0-8 min, 77 % A, 8-25 min, 25 % A, 25-40 min 25 % A and the 40-45 min 77 % A. Initial conditions were gained in 5 min. The flow rate was constant at 0.7 ml/min. Injection volume was 20 μl and the detection was accomplished using a diode array detection system, storing the signal at a wavelength of 230, 280 and 350 nm. In the case of quercetin BIOSAS dispersion, HPLC analysis was carried out as previously described by Wei et al.. A Prominence-i LC-2030C 3D Plus (Shimadzu) equipped with a quaternary solvent delivery system, an autosampler and DAD detector and RP-C18 (250 × 4.6 mm; 3 μm) was used. The column temperature was set at 25 °C. The mobile phase consists of acetonitrile (A) and 0.026% aqueous H3PO4 (v/v), applying the following gradient elution: at 0-20 min, 20%-25% A, 20-30 min, 25%-34% A, 30-50 min, 34%-50% A, 50-60 min, 50%-60% A and 60-80 min, 60% A. After 5 min, the initial conditions were achieved. The flow rate was 0.7 ml/min and was kept constant during analysis. Injection volume was 20 μl and detection was accomplished at 254, 280 and 370 nm.

mice = details: intravenous administration; cited from earlier work

| SMILES | amount dispersed in oil ([1]; argan oil) | amount dispersed in oil ([1]; flaxseed oil) | concentration of quercetin in the flaxseed oil ([1]; HPLC analysis, BIOSAS 20 MPa, 313.15 K) | amount dispersed by BIOSAS process ([1]; in high molecular weight triacylglycerols (flaxseed oil), 313.15 K) | LD50 (mice) |
| --- | --- | --- | --- | --- | --- |
| CC(C)c1cc2c(c(O)c1O)[C@@]1(C(=O)O)CCCC(C)(C)[C@@H]1CC2 [carnosic acid, Carnosic acid] | 4.90 mg/g | 6.39 mg/g | – | – | – |
| O=c1c(O)c(-c2ccc(O)c(O)c2)oc2cc(O)cc(O)c12 [quercetin, 2-(3,4-Dihydroxyphenyl)-3,5,7-trihydroxy-4H-1-benzopyran-4-one,3,3',4',5,6-Pentahydroxyflavone - Quercetin] | – | – | 1.55 ± 0.05 % mass | > 15 mg/g | – |
| O=C(/C=C/c1ccc(O)c(O)c1)O[C@H](Cc1ccc(O)c(O)c1)C(=O)O [rosmarinic acid] | ~0.40 mg/g | 0.51 mg/g | – | – | 561 mg/kg |
